Measurements as given in US6737383B1, “Herbicidal oxadiazolidines” (priority 1999, dated 2004).

How the values were obtained:
[1] = tested on: bedstraw; assay: Test B pre/postemergence bedstraw; format: in vivo, Galium aparine
How it was run: (§1)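 Herbicidal effect was estimated by eye on a ten-point control scale after plants spent twelve to sixteen days in a greenhouse following soil or foliar treatment. Foliar sprays targeted plants at one to four leaves; all doses were formulated in a non-phytotoxic solvent with surfactant.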

[2] = tested on: blackgrass; assay: Test B pre/postemergence blackgrass; format: in vivo, Alopecurus myosuroides
How it was run: as §1

[3] = tested on: surinam grass; assay: Test B pre/postemergence surinam grass; format: in vivo, Brachiaria decumbens
How it was run: as §1

[4] = tested on: cocklebur; assay: Test B pre/postemergence cocklebur; format: in vivo, Xanthium strumarium
How it was run: as §1

[5] = tested on: corn; assay: Test B pre/postemergence corn; format: in vivo, Zea mays
How it was run: as §1

[6] = tested on: crabgrass; assay: Test B pre/postemergence crabgrass; format: in vivo, Digitaria sanguinalis
How it was run: as §1

[7] = tested on: giant foxtail; assay: Test B pre/postemergence giant foxtail; format: in vivo, Setaria faberii
How it was run: as §1

[8] = tested on: rape; assay: Test B pre/postemergence rape; format: in vivo, Brassica napus
How it was run: as §1

[9] = tested on: soybean; assay: Test B pre/postemergence soybean; format: in vivo, Glycine max
How it was run: as §1

[10] = tested on: sugar beet; assay: Test B pre/postemergence sugar beet; format: in vivo, Beta vulgaris
How it was run: as §1

[11] = tested on: velvetleaf; assay: Test B pre/postemergence velvetleaf; format: in vivo, Abutilon theophrasti
How it was run: as §1

[12] = tested on: wheat; assay: Test B pre/postemergence wheat; format: in vivo, Triticum aestivum
How it was run: as §1

[13] = tested on: purple nutsedge; assay: Test B pre/postemergence purple nutsedge; format: in vivo, Cyperus rotundus; conditions: Postemergence
How it was run: as §1

[14] = tested on: rice; assay: Test B flood test rice; format: in vivo, Oryza sativa
How it was run: (§2)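 Read-out is a visual response score from 0 (no effect) to 10 (complete control), assigned by comparison with untreated controls. Treatment was applied at the 2-leaf stage, and plants stayed in the greenhouse for twelve to sixteen days before scoring.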

[15] = tested on: smallflower flatsedge; assay: Test B flood test smallflower flatsedge; format: in vivo, Cyperus difformis
How it was run: as §2

[16] = tested on: duck salad; assay: Test B flood test duck salad; format: in vivo, Heteranthera limosa
How it was run: as §2

[17] = tested on: bamyardgrass; assay: Test B flood test barnyardgrass; format: in vivo, Echinochloa crus-galli
How it was run: as §2

[18] = Postemergence, Rate 250 g/ha, scale 0 to 10, 0 no effect, 10 complete control
[19] = Postemergence, Rate 1000 g/ha, scale 0 to 10 (0 no effect, 10 complete control)
[20] = Preemergence, Rate 125 g/ha, scale 0 to 10 (0 no effect, 10 complete control)
[21] = Preemergence, Rate 250 g/ha, scale of 0 to 10 where 0 is no effect and 10 is complete control
[22] = Preemergence, Rate 500 g/ha, scale 0 (no effect) to 10 (complete control)
[23] = Rate 125 g/ha, Postemergence, scale 0 to 10, 0 no effect, 10 complete control
[24] = Rate 500 g/ha, Postemergence, 0 to 10 scale (0 no effect, 10 complete control)
[25] = Rate 1000 g/ha, Preemergence, scale 0 to 10 (0 no effect, 10 complete control)
[26] = Rate 125 g/ha, Postemergence section (flood test species), scale 0 to 10, 0 no effect, 10 complete control
[27] = Rate 500 g/ha, Postemergence section of Table B, 0 to 10 scale (0 no effect, 10 complete control)
[28] = flood test, listed under Postemergence, Rate 250 g/ha, scale 0 to 10, 0 no effect, 10 complete control

## CCN(CC)C(=O)n1oc(=O)n(-c2c(C)cccc2C)c1=O [Compound 2]
[1]; [18]
  Bedstraw plant response rating: 0
[1]; [19]
  Bedstraw plant response rating: 0
[1]; [20]
  Plant response rating, Bedstraw: 0
[1]; [21]
  Plant response rating, Bedstraw: 0
[1]; [22]
  Bedstraw plant response rating: 0
[1]; [23]
  Bedstraw plant response rating: 0
[1]; [24]
  Bedstraw plant response rating: 0
[1]; [25]
  Plant response rating, Bedstraw: 0
[2]; [18]
  Blackgrass plant response rating: 4
[2]; [19]
  Blackgrass plant response rating: 9
[2]; [20]
  Plant response rating, Blackgrass: 0
[2]; [21]
  Plant response rating, Blackgrass: 0
[2]; [22]
  Blackgrass plant response rating: 0
[2]; [23]
  Blackgrass plant response rating: 0
[2]; [24]
  Blackgrass plant response rating: 8
[2]; [25]
  Plant response rating, Blackgrass: 7
[3]; [18]
  B. signalgrass plant response rating: 0
[3]; [19]
  B. signalgrass plant response rating: 2
[3]; [20]
  Plant response rating, B. signalgrass: 0
[3]; [21]
  Plant response rating, B. signalgrass: 0
[3]; [22]
  B. signalgrass plant response rating: 0
[3]; [23]
  B. signalgrass plant response rating: 0
[3]; [24]
  B. signalgrass plant response rating: 0
[3]; [25]
  Plant response rating, B. signalgrass: 6
[4]; [18]
  Cocklebur plant response rating: 0
[4]; [19]
  Cocklebur plant response rating: 0
[4]; [20]
  Plant response rating, Cocklebur: 0
[4]; [21]
  Plant response rating, Cocklebur: 0
[4]; [22]
  Cocklebur plant response rating: 0
[4]; [23]
  Cocklebur plant response rating: 0
[4]; [24]
  Cocklebur plant response rating: 0
[5]; [18]
  Corn plant response rating: 3
[5]; [19]
  Corn plant response rating: 8
[5]; [20]
  Plant response rating, Corn: 4
[5]; [21]
  Plant response rating, Corn: 6
[5]; [22]
  Corn plant response rating: 7
[5]; [23]
  Corn plant response rating: 0
[5]; [24]
  Corn plant response rating: 6
[5]; [25]
  Plant response rating, Corn: 8
[6]; [18]
  Crabgrass plant response rating: 0
[6]; [19]
  Crabgrass plant response rating: 4
[6]; [20]
  Plant response rating, Crabgrass: 0
[6]; [21]
  Plant response rating, Crabgrass: 0
[6]; [22]
  Crabgrass plant response rating: 0
[6]; [23]
  Crabgrass plant response rating: 0
[6]; [24]
  Crabgrass plant response rating: 0
[6]; [25]
  Plant response rating, Crabgrass: 6
[7]; [18]
  Giant foxtail plant response rating: 7
[7]; [19]
  Giant foxtail plant response rating: 8
[7]; [20]
  Plant response rating, Giant foxtail: 6
[7]; [21]
  Plant response rating, Giant foxtail: 7
[7]; [22]
  Giant foxtail plant response rating: 7
[7]; [23]
  Giant foxtail plant response rating: 0
[7]; [24]
  Giant foxtail plant response rating: 7
[7]; [25]
  Plant response rating, Giant foxtail: 10
[8]; [18]
  Rape plant response rating: 0
[8]; [19]
  Rape plant response rating: 0
[8]; [20]
  Plant response rating, Rape: 0
[8]; [21]
  Plant response rating, Rape: 0
[8]; [22]
  Rape plant response rating: 0
[8]; [23]
  Rape plant response rating: 0
[8]; [24]
  Rape plant response rating: 0
[8]; [25]
  Plant response rating, Rape: 0
[9]; [18]
  Soybean plant response rating: 1
[9]; [19]
  Soybean plant response rating: 4
[9]; [20]
  Plant response rating, Soybean: 0
[9]; [21]
  Plant response rating, Soybean: 0
[9]; [22]
  Soybean plant response rating: 0
[9]; [23]
  Soybean plant response rating: 0
[9]; [25]
  Plant response rating, Soybean: 3
[10]; [18]
  Sugarbeets plant response rating: 0
[10]; [19]
  Sugarbeets plant response rating: 0
[10]; [20]
  Plant response rating, Sugarbeets: 0
[10]; [21]
  Plant response rating, Sugarbeets: 0
[10]; [22]
  Sugarbeets plant response rating: 0
[10]; [23]
  Sugarbeets plant response rating: 0
[10]; [25]
  Plant response rating, Sugarbeets: 0
[11]; [18]
  Velvetleaf plant response rating: 0
[11]; [19]
  Velvetleaf plant response rating: 0
[11]; [20]
  Plant response rating, Velvetleaf: 0
[11]; [21]
  Plant response rating, Velvetleaf: 0
[11]; [22]
  Velvetleaf plant response rating: 0
[11]; [23]
  Velvetleaf plant response rating: 0
[11]; [25]
  Plant response rating, Velvetleaf: 2
[12]; [18]
  Wheat plant response rating: 0
[12]; [19]
  Wheat plant response rating: 0
[12]; [20]
  Plant response rating, Wheat: 0
[12]; [21]
  Plant response rating, Wheat: 0
[12]; [22]
  Wheat plant response rating: 0
[12]; [23]
  Wheat plant response rating: 0
[12]; [25]
  Plant response rating, Wheat: 0
[13]; Rate 250 g/ha, scale 0 to 10, 0 no effect, 10 complete control
  Nutsedge plant response rating: 0
[13]; Rate 1000 g/ha, scale 0 to 10 (0 no effect, 10 complete control)
  Nutsedge plant response rating: 0
[13]; Rate 125 g/ha, scale 0 to 10, 0 no effect, 10 complete control
  Nutsedge plant response rating: 0
[13]; Rate 500 g/ha, 0 to 10 scale (0 no effect, 10 complete control)
  Nutsedge plant response rating: 0
[14]; [19]
  Rice plant response rating: 0
[14]; [26]
  Rice plant response rating: 0
[14]; [27]
  Rice plant response rating: 0
[14]; [28]
  Rice plant response rating: 0
[15]; [19]
  S. Flatsedge plant response rating: 0
[15]; [26]
  S. Flatsedge plant response rating: 0
[15]; [28]
  S. Flatsedge plant response rating: 0
[16]; [19]
  Ducksalad plant response rating: 0
[16]; [26]
  Ducksalad plant response rating: 0
[16]; [27]
  Ducksalad plant response rating: 0
[16]; [28]
  Ducksalad plant response rating: 0
[17]; [19]
  Barnyardgrass plant response rating: 0
[17]; [26]
  Barnyardgrass plant response rating: 0
[17]; [27]
  Barnyardgrass plant response rating: 0
[17]; [28]
  Barnyardgrass plant response rating: 0
